The values below come from PMC7488503 (Acta Pharmaceutica Sinica. B, 2020).

SMILES strings stand for the structures.

The target in test [1] is VEGFR2 (Homo sapiens, UniProt P35968). The experiment in a line: Z′-LYTE kinase inhibition assay.
Test [2] addresses FGFR1 (Homo sapiens, UniProt P11362). As to the kind of experiment: Z′-LYTE kinase inhibition assay.
Test [3] addresses PDGFRβ (Homo sapiens, UniProt P09619). As to the kind of experiment: Z′-LYTE kinase inhibition assay.
The test system of test [4] is HUVECs. As to the kind of experiment: VEGF-induced HUVECs proliferation. It counts as cell-based. The note with it: Homo sapiens, HUVEC, 72 h, read-out: IC50 HUVECs.
For test [5], the system named is HBVPs. As to the kind of experiment: PDGF-BB-induced HBVPs proliferation. The settings on record: Homo sapiens, 48 h, read-out: IC50 HBVPs. Type of test: cell-based.
Test [6] concerns A549 lung cancer xenograft. As to the kind of experiment: A549 lung cancer subcutaneous xenograft model. Type of test: in vivo, Balb/c nude mice.
The test system of test [7] is NCI-H520 lung cancer xenograft. The experiment in a line: NCI-H520 lung cancer subcutaneous xenograft model. Type of test: in vivo, Balb/c nude mice.
The subject of test [8] is patient-derived tumor (LI-03-0020) xenograft. The experiment in a line: Liver cancer patient-derived tumor xenograft. The note with it: liver cancer PDX model, 60 mg/kg oral QD. It counts as in vivo, Balb/c nude mice. A general note: A xenograft is tissue or cells of one species grown in another, often human tumour cells in immunodeficient mice.

Chain of PDGFRβ (P09619 33-1106): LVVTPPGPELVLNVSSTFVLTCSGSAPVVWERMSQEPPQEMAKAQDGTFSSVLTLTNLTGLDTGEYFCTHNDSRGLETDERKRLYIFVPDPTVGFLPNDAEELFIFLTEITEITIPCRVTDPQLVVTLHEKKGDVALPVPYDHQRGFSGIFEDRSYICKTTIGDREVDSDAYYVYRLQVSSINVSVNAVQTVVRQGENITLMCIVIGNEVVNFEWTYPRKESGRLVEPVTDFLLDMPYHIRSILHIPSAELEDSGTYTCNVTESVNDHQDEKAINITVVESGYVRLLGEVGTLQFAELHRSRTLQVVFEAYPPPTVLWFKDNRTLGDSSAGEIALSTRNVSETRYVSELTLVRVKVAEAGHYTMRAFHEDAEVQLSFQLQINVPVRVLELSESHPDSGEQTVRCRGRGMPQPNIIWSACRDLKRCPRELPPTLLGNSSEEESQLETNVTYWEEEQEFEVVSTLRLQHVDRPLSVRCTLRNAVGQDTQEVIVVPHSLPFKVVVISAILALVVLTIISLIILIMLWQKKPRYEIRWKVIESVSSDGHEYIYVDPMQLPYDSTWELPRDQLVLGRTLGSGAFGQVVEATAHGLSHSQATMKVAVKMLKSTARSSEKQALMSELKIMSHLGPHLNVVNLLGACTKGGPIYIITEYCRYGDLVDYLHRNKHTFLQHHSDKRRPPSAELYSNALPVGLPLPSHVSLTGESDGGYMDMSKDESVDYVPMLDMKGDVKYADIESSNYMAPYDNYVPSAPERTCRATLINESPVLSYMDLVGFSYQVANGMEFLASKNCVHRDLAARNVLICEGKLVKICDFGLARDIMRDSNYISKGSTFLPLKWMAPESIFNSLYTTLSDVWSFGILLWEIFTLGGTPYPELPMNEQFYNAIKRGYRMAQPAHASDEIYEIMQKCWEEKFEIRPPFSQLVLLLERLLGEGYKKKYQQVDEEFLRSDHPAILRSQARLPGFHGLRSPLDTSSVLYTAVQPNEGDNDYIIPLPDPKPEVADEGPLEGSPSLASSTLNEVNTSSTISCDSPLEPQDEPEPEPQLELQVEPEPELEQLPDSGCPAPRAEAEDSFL
Chain of VEGFR2 (P35968 20-1356): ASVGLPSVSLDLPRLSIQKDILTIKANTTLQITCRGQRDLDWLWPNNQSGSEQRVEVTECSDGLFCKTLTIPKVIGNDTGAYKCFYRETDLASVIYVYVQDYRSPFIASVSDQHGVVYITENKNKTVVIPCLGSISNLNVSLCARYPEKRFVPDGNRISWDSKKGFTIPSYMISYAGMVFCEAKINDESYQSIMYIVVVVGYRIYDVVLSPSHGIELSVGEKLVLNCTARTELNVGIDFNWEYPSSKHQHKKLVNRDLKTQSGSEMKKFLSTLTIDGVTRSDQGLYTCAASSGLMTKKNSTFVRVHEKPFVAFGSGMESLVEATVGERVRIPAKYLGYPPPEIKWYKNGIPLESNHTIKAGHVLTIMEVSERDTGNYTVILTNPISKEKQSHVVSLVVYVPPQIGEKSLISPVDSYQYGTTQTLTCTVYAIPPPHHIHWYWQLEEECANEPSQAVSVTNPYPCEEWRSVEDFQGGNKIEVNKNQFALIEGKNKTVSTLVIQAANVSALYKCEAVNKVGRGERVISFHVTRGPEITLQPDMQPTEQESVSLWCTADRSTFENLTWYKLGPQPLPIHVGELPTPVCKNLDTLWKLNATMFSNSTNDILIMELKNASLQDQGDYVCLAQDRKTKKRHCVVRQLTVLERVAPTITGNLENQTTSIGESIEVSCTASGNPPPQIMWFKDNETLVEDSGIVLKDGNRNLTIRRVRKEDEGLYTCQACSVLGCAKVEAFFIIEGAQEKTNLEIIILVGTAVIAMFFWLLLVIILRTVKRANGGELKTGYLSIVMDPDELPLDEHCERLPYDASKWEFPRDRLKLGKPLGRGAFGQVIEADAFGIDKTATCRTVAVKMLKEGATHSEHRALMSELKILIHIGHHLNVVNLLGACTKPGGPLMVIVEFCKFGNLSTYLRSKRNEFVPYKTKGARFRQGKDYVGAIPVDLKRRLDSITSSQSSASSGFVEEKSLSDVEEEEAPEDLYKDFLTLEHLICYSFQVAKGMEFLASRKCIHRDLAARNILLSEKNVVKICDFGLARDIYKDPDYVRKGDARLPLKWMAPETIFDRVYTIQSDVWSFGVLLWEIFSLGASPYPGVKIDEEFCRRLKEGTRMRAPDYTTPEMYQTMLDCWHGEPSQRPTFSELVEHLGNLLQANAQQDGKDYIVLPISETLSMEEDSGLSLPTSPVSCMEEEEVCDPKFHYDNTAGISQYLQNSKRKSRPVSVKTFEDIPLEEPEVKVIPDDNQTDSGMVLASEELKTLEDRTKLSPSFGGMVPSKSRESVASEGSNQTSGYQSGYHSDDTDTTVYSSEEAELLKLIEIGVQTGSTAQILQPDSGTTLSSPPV
Chain of FGFR1 (P11362 22-822): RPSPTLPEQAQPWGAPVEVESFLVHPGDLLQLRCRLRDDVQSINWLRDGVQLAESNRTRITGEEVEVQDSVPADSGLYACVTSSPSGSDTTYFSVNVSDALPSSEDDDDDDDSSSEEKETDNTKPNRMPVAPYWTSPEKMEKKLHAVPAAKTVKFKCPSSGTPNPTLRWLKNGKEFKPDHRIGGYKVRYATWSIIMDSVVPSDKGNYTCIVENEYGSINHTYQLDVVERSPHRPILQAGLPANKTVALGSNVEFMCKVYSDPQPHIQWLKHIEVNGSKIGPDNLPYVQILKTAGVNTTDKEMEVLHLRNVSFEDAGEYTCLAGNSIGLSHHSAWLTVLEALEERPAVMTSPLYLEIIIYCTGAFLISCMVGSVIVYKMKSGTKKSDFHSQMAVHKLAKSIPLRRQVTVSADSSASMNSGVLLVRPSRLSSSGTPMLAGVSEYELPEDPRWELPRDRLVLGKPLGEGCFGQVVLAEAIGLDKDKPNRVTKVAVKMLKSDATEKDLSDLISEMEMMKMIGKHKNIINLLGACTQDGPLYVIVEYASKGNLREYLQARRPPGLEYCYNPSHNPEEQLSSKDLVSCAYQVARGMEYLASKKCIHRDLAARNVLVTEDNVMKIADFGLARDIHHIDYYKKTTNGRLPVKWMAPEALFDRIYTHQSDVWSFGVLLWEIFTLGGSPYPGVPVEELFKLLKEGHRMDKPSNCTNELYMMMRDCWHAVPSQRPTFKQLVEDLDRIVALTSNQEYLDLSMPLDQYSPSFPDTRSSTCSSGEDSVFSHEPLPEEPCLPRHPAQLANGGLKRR

`O=C1NCOc2cc3nccc(Oc4ccc(NC(=S)NC5CC5)c(Cl)c4)c3cc21` [B3]: the IC50 in test [1] came out at 0.227 µM; in test [2], 0.777 µM; in test [3], 0.41 µM.
Taken in the same sequence, the figures for `COc1cc2nccc(Oc3ccc(NC(N)=S)c(Cl)c3)c2cc1C(N)=O` [C1] were 0.0327 µM, 0.436 µM and 0.0772 µM.
Regarding `COC(=O)c1ccc2c(c1)NC(=O)/C2=C(\Nc1ccc(N(C)C(=O)CN2CCN(C)CC2)cc1)c1ccccc1` [Nintedanib, reference compound], the IC50 was determined as 0.041 µM in test [4] and 1.67 µM in test [5]. Also, the T/C in test [6] (100 mg/kg p.o. QD, Day 21) worked out at 26%; in test [7] (100 mg/kg p.o. QD, Day 21), 45%. The TGI in test [6] (100 mg/kg p.o. QD, Day 21) is on record as 80%; in test [7] (100 mg/kg p.o. QD, Day 21), 62%. Further, the “Tumor volume at Day 21” value in test [6] (100 mg/kg p.o. QD, mean ± SEM) stood at 391 ± 43 mm^3; in test [7] (100 mg/kg p.o. QD, mean ± SEM), 585 ± 101 mm^3. For the same compound, the “area of CD31 (tumor micro-vessel density, IHC)” value in test [6] (100 mg/kg, mean ± SEM, n = 3, control 3.38 ± 0.49) is listed as 1.05 ± 0.33; in test [7] (100 mg/kg, mean ± SEM, n = 3, control 4.96 ± 0.62), 1.99 ± 0.04.
As for `CNC(=O)c1cc(Oc2ccc(NC(=O)Nc3ccc(Cl)c(C(F)(F)F)c3)cc2)ccn1` [Sorafenib, reference compound], in test [8] (Day 21), the T/C is 31% and the TGI is 80%. For the same compound, the “Tumor volume at Day 21” value in test [8] (mean ± SEM) is given as 304 ± 73 mm^3.
Consider `COc1cc2nccc(Oc3ccc(NC(=S)NC4CC4)c(Cl)c3)c2cc1C(N)=O` [WXFL-255, 4-(3-chloro-4-(3-cyclopropylthioureido)phenoxy)-7-methoxyquinoline-6-carboxamide], for which the half-maximal inhibitory concentration (IC50) in test [4] was 0.0902 µM; in test [1] it was 0.0094 µM; in test [2], 0.188 µM; in test [3], 0.143 µM.

One may read the IC50 as the concentration that inhibits the measured activity by half. Usually T/C stands for the ratio of treated to control. As usually defined, the TGI is the reduction of tumour growth relative to the control group. Read a low TGI as little slowing of growth.
